Data published in publication PMC6060862, “Prediction and characterization of a novel hemocyanin-derived antimicrobial peptide from shrimp Litopenaeus vannamei” (Amino Acids, 2018).
Converted amounts (≈) assume the structure as drawn. Like-named read-outs stand apart in the source and are kept apart here. Residues, ends and D or L forms follow the SMILES beside them.

Legend:
Vibrio parahaemolyticus = experiment: Minimal inhibitory concentration (MIC); assay type: cell-based; conditions: Gram negative; bacteria 10^6 CFU/mL in 0.01 M PBS pH 7.6 mixed with equal volume of peptide in PBS, 30 °C 2 h, plated on LB agar 30 °C overnight; triplicate, repeated at least three times
Experimental: (§1) Seven bacteria including Vibrio parahaemolyticus, Vibrio fluvialis, Vibrio alginolyticus, Escherichia coli, Aeromonas hydrophila, Staphylococcus aureus and Streptococcus pyogenes were grown in LB medium at 30 °C and diluted to 10^6 CFU/mL in 0.01 M, pH 7.6 PBS. Peptides were diluted in PBS. The bacteria and diluted peptides were mixed in equal volumes, and then incubated at 30 °C for 2 h. […] Experiments were carried out in triplicate and repeated at least three times. Data are presented as mean ± standard deviation. GraphPad prism 6 was used to analyze the data with the statistical significance determined by one-way ANOVA and Student’s t test, and all experiments were carried out in triplicate.

Aeromonas hydrophila = assay type: cell-based
Experimental: as §1

Escherichia coli = assay type: cell-based
Experimental: as §1

Staphylococcus aureus = assay type: cell-based
Experimental: as §1

Streptococcus pyogenes = assay type: cell-based
Experimental: as §1

Vibrio alginolyticus = assay type: cell-based
Experimental: as §1

Vibrio fluvialis = assay type: cell-based
Experimental: as §1

[1] = test system: seven bacteria (V. parahaemolyticus, V. fluvialis, V. alginolyticus, E. coli, A. hydrophila, S. aureus, S. pyogenes); experiment: MIC summarised over the seven bacteria (GB, average MIC, fold change); assay type: cell-based; conditions: for decrease of antibacterial activity relative to L1: from MICs of Table 3, except for S.pyogenes; for GB: summary of the MICs over the seven bacteria, footnote b not given
Experimental: as §1

[2] = not given; remark: listed apart in the source
[3] = not given; remark: listed apart in the source
[4] = not given; remark: listed apart in the source
[5] = Gram negative, bacteria 10^6 CFU/mL in 0.01 M PBS pH 7.6 mixed with equal volume of peptide in PBS, 30 °C 2 h, plated on LB agar 30 °C overnight, triplicate, repeated at least three times
[6] = Gram positive, bacteria 10^6 CFU/mL in 0.01 M PBS pH 7.6 mixed with equal volume of peptide in PBS, 30 °C 2 h, plated on LB agar 30 °C overnight, triplicate, repeated at least three times

Row | MIC A. hydrophila (Aeromonas hydrophila; 2 h, pH 7.6) [µg/mL] | MIC E. coli (Escherichia coli; 2 h, pH 7.6) [µg/mL] | MIC S. aureus (Staphylococcus aureus; 2 h, pH 7.6) [µg/mL] | MIC S. pyogenes (Streptococcus pyogenes; 2 h, pH 7.6) [µg/mL] | MIC V. alginolyticus (Vibrio alginolyticus; 2 h, pH 7.6) [µg/mL] | MIC V. fluvialis (Vibrio fluvialis; 2 h, pH 7.6) [µg/mL] | Structure (SMILES) | MIC V. parahaemolyticus (Vibrio parahaemolyticus) [µg/mL] | decrease of antibacterial activity relative to L1 [1] | GB [1] [µg/mL] | β-turns content [%] | β-strand content [2] [%] | α-helical content [3] [%] | random coil content [4] [%] | average MIC relative to the average MIC of L1 ([1]; over the seven bacteria) | MIC A. hydrophila (Aeromonas hydrophila; Gram negative (Table 2), bacteria 10^6 CFU/mL in 0.01 M PBS pH 7.6 mixed with equal volume of peptide in PBS, 30 °C 2 h, plated on LB agar 30 °C overnight, triplicate, repeated at least three times) [µg/mL] | MIC E. coli (Escherichia coli; [5]) [µg/mL] | MIC S. aureus (Staphylococcus aureus; [6]) [µg/mL] | MIC S. pyogenes (Streptococcus pyogenes; [6]) [µg/mL] | MIC V. alginolyticus (Vibrio alginolyticus; [5]) [µg/mL] | MIC V. fluvialis (Vibrio fluvialis; [5]) [µg/mL]
1 | 15.6 (≈ 8.24 µM) | 7.8 (≈ 4.12 µM) | > 250 | 62.5 (≈ 33 µM) | > 250 | > 250 | CC[C@H](C)[C@H](NC(=O)[C@H](CC(N)=O)NC(=O)[C@H](CC(=O)O)NC(=O)[C@H](Cc1ccc(O)cc1)NC(=O)[C@@H](NC(=O)[C@H](CCCCN)NC(=O)[C@H](Cc1c[nH]cn1)NC(=O)[C@H](CC(C)C)NC(=O)[C@H](CC(C)C)NC(=O)[C@H](Cc1ccccc1)NC(=O)[C@H](CC(N)=O)NC(=O)[C@@H](N)C(C)C)[C@@H](C)CC)C(=O)N[C@@H](CCCNC(=N)N)C(=O)N[C@@H](Cc1ccc(O)cc1)C(=O)N[C@@H](CO)C(N)=O [M2] (H-VNFLLHKIYDNIRYS-NH2) | 62.5 (≈ 33 µM) | 2- to 64 fold | 69.0 | – | – | – | – | – | – | – | – | – | – | –
2 | 15.6 (≈ 8.93 µM) | 15.6 (≈ 8.93 µM) | > 250 | 15.6 (≈ 8.93 µM) | 250 (≈ 143 µM) | 250 (≈ 143 µM) | CC[C@H](C)[C@H](NC(=O)[C@H](CCCCN)NC(=O)[C@H](Cc1c[nH]cn1)NC(=O)[C@H](CC(C)C)NC(=O)[C@H](CC(C)C)NC(=O)CNC(=O)[C@H](CC(N)=O)NC(=O)[C@@H](N)C(C)C)C(=O)N[C@@H](Cc1ccc(O)cc1)C(=O)NCC(=O)N[C@@H](CC(N)=O)C(=O)N[C@H](C(=O)N[C@@H](CCCNC(=N)N)C(=O)N[C@@H](Cc1ccc(O)cc1)C(=O)N[C@@H](CO)C(N)=O)[C@@H](C)CC [M1] (H-VNGLLHKIYGNIRYS-NH2) | 62.5 (≈ 35.8 µM) | 2- to 64 fold | – | – | – | – | – | – | – | – | – | – | – | –
3 | 3.9 (≈ 2.18 µM) | 3.9 (≈ 2.18 µM) | 62.5 (≈ 35 µM) | 62.5 (≈ 35 µM) | 3.9 (≈ 2.18 µM) | 62.5 (≈ 35 µM) | CC[C@H](C)[C@H](NC(=O)[C@H](CCCCN)NC(=O)[C@H](Cc1c[nH]cn1)NC(=O)[C@H](CC(C)C)NC(=O)[C@H](CC(C)C)NC(=O)[C@H](Cc1ccccc1)NC(=O)[C@H](CC(N)=O)NC(=O)[C@@H](N)C(C)C)C(=O)N[C@@H](Cc1ccc(O)cc1)C(=O)NCC(=O)N[C@@H](CC(N)=O)C(=O)N[C@H](C(=O)N[C@@H](CCCNC(=N)N)C(=O)N[C@@H](CC(=O)O)C(=O)N[C@@H](CO)C(N)=O)[C@@H](C)CC [M3] (H-VNFLLHKIYGNIRDS-NH2) | 31.2 (≈ 17.4 µM) | no change | 14.2 | – | – | – | – | – | – | – | – | – | – | –

The remaining lines, values behind:

Row | Structure (SMILES) | MIC A. hydrophila (Aeromonas hydrophila; 2 h, pH 7.6) [µg/mL] | MIC E. coli (Escherichia coli; 2 h, pH 7.6) [µg/mL] | MIC S. aureus (Staphylococcus aureus; 2 h, pH 7.6) [µg/mL] | MIC S. pyogenes (Streptococcus pyogenes; 2 h, pH 7.6) [µg/mL] | MIC V. alginolyticus (Vibrio alginolyticus; 2 h, pH 7.6) [µg/mL] | MIC V. fluvialis (Vibrio fluvialis; 2 h, pH 7.6) [µg/mL] | MIC V. parahaemolyticus (Vibrio parahaemolyticus) [µg/mL] | decrease of antibacterial activity relative to L1 [1] | GB [1] [µg/mL] | β-turns content [%] | β-strand content [2] [%] | α-helical content [3] [%] | random coil content [4] [%] | average MIC relative to the average MIC of L1 ([1]; over the seven bacteria) | MIC A. hydrophila (Aeromonas hydrophila; Gram negative (Table 2), bacteria 10^6 CFU/mL in 0.01 M PBS pH 7.6 mixed with equal volume of peptide in PBS, 30 °C 2 h, plated on LB agar 30 °C overnight, triplicate, repeated at least three times) [µg/mL] | MIC E. coli (Escherichia coli; [5]) [µg/mL] | MIC S. aureus (Staphylococcus aureus; [6]) [µg/mL] | MIC S. pyogenes (Streptococcus pyogenes; [6]) [µg/mL] | MIC V. alginolyticus (Vibrio alginolyticus; [5]) [µg/mL] | MIC V. fluvialis (Vibrio fluvialis; [5]) [µg/mL]
4 | CC[C@H](C)[C@H](NC(=O)[C@H](CCCCN)NC(=O)[C@H](Cc1c[nH]cn1)NC(=O)[C@H](CC(C)C)NC(=O)[C@H](CC(C)C)NC(=O)[C@H](Cc1ccccc1)NC(=O)[C@H](CC(N)=O)NC(=O)[C@@H](N)C(C)C)C(=O)N[C@@H](Cc1ccc(O)cc1)C(=O)NCC(=O)N[C@@H](CC(N)=O)C(=O)N[C@H](C(=O)N[C@@H](CCCNC(=N)N)C(=O)N[C@@H](Cc1ccc(O)cc1)C(=O)N[C@@H](CO)C(N)=O)[C@@H](C)CC [L1] (H-VNFLLHKIYGNIRYS-NH2) | 3.9 (≈ 2.12 µM) | 3.9 (≈ 2.12 µM) | 62.5 (≈ 34 µM) | 62.5 (≈ 34 µM) | 3.9 (≈ 2.12 µM) | 62.5 (≈ 34 µM) | 31.2 (≈ 17 µM) | – | – | 24 | 11.2 | 34.6 | 33.4 | – | – | – | – | – | – | –
5 | CC(C)C[C@H](NC(=O)[C@H](CCCCN)NC(=O)[C@H](CCC(N)=O)NC(=O)[C@@H](NC(=O)[C@H](C)NC(=O)[C@H](CCC(=O)O)NC(=O)CNC(=O)CN)C(C)C)C(=O)N[C@H](C(=O)N[C@@H](CCCNC(=N)N)C(=O)N[C@@H](CCC(=O)O)C(=O)N[C@H](C(=O)N[C@@H](CCCCN)C(=O)N[C@@H](CC(=O)O)C(=O)NCC(N)=O)C(C)C)C(C)C [L2] (H-GGEAVQKLVREVKDG-NH2; N-terminus and C-terminus assumed) | 250 (≈ 158 µM) | > 250 | > 250 | 250 (≈ 158 µM) | 125 (≈ 78.9 µM) | 125 (≈ 78.9 µM) | 250 (≈ 158 µM) | – | 205.1 | – | – | – | – | tenfold | – | – | – | – | – | –
6 | CC[C@H](C)[C@H](NC(=O)[C@H](Cc1c[nH]cn1)NC(=O)[C@H](C)NC(=O)[C@@H](NC(=O)[C@H](CC(N)=O)NC(=O)[C@H](Cc1c[nH]cn1)NC(=O)[C@H](CC(C)C)NC(=O)[C@H](C)NC(=O)CNC(=O)[C@H](Cc1ccc(O)cc1)NC(=O)[C@@H](N)Cc1ccc(O)cc1)[C@@H](C)O)C(=O)N[C@H](C(=O)N[C@@H](CC(C)C)C(=O)NCC(=O)N[C@@H](CCCNC(=N)N)C(N)=O)C(C)C [L12] (H-YYGALHNTAHIVLGR-NH2) | 125 (≈ 74.2 µM) | 125 (≈ 74.2 µM) | > 250 | 125 (≈ 74.2 µM) | 15.6 (≈ 9.26 µM) | 250 (≈ 148 µM) | 250 (≈ 148 µM) | – | 125.0 | – | – | – | – | – | – | – | – | – | – | –
7 | CC[C@H](C)[C@H](NC(=O)[C@H](C)NC(=O)[C@H](CC(=O)O)NC(=O)[C@H](CCCNC(=N)N)NC(=O)[C@@H](NC(=O)[C@@H](N)CCCNC(=N)N)[C@@H](C)CC)C(=O)N[C@@H](C)C(=O)N[C@@H](Cc1c[nH]cn1)C(=O)NCC(=O)N[C@@H](Cc1ccc(O)cc1)C(=O)N[C@H](C(=O)N[C@H](C(=O)N[C@@H](CC(=O)O)C(=O)N[C@@H](CCCCN)C(=O)N[C@H](C(N)=O)C(C)C)C(C)C)[C@@H](C)CC [L10] (H-RIRDAIAHGYIVDKV-NH2) | 31.3 (≈ 18.1 µM) | > 250 | > 250 | 125 (≈ 72.5 µM) | 31.3 (≈ 18.1 µM) | 125 (≈ 72.5 µM) | 250 (≈ 145 µM) | – | 113.3 | – | – | – | – | – | – | – | – | – | – | –
8 | NC[C@H]1O[C@H](O[C@H]2[C@H](O)[C@@H](O[C@H]3O[C@H](CO)[C@@H](O)[C@H](N)[C@H]3O)[C@H](N)C[C@@H]2N)[C@H](O)[C@@H](O)[C@@H]1O [Kanamycin, reference compound] | – | – | – | – | – | – | 1 (≈ 2.06 µM) | – | 1.1 | – | – | – | – | – | 1 (≈ 2.06 µM) | 2 (≈ 4.13 µM) | 2 (≈ 4.13 µM) | 1 (≈ 2.06 µM) | 0.5 (≈ 1.03 µM) | 1 (≈ 2.06 µM)
9 | CC[C@H](C)[C@H](NC(=O)[C@H](CCCNC(=N)N)NC(=O)[C@H](CO)NC(=O)[C@H](CCC(=O)O)NC(=O)[C@@H](NC(=O)[C@@H](NC(=O)[C@H](CC(C)C)NC(=O)[C@H](CC(C)C)NC(=O)[C@H](CC(=O)O)NC(=O)[C@H](CCCNC(=N)N)NC(=O)[C@@H](NC(=O)[C@H](CCCNC(=N)N)NC(=O)[C@H](C)NC(=O)[C@@H](NC(=O)CN)C(C)C)[C@@H](C)CC)[C@@H](C)CC)[C@@H](C)CC)C(N)=O [L8] (H-GVARIRDLLIIESRI-NH2; N-terminus and C-terminus assumed) | 31.3 (≈ 18.2 µM) | > 250 | 250 (≈ 145 µM) | 250 (≈ 145 µM) | 250 (≈ 145 µM) | 250 (≈ 145 µM) | 250 (≈ 145 µM) | – | 185.8 | – | – | – | – | – | – | – | – | – | – | –
